Measured values from ChEMBL document CHEMBL1697681, “Predicting phospholipidosis using machine learning” (Mol Pharm, 2010).

Tested on: Phospholipidosis
Test: Literature-mined public compounds from Lowe et al phospholipidosis modelling dataset

SMILES	Phospholipidosis
CN(C)CCCN1c2ccccc2CCc2ccc(Cl)cc21 [CLOMIPRAMINE]	Positive
CN1C(C(=O)Nc2ccccn2)=C(O)c2ccccc2S1(=O)=O [PIROXICAM]	Negative
CC[C@H]1OC(=O)[C@H](C)[C@@H](O[C@H]2C[C@@](C)(OC)[C@@H](O)[C@H](C)O2)[C@H](C)[C@@H](O[C@@H]2O[C@H](C)C[C@H](N(C)C)[C@H]2O)[C@](C)(O)C[C@@H](C)CN(C)[C@H](C)[C@@H](O)[C@]1(C)O [AZITHROMYCIN]	Positive
C1CCC(C(CC2CCCCN2)C2CCCCC2)CC1 (configuration not stated) [PERHEXILINE]	Positive
CC1(C)OC[C@H]([C@@H](CS(=O)(=O)c2ccc(Oc3ccc(OC(F)(F)F)cc3)cc2)N(O)C=O)O1	Negative
O=C1CC2(CCCC2)CC(=O)N1CCCCN1CCN(c2ncccn2)CC1 [BUSPIRONE]	Negative
CCOc1ccc(NC(C)=O)cc1 [PHENACETIN]	Positive
CC(C)C(=O)Nc1ccc([N+](=O)[O-])c(C(F)(F)F)c1 [FLUTAMIDE]	Negative
CCSCC[C@H](N)C(=O)O [ETHIONINE]	Negative
CCN(CC)CCn1nc2c3c(c(C)ccc31)Sc1cc(Cl)ccc1-2	Positive
CCN(CC)CC(=O)Nc1c(C)cccc1C [LIDOCAINE]	Positive
C#C[C@]1(O)CC[C@H]2[C@@H]3CCc4cc(O)ccc4[C@H]3CC[C@@]21C [ETHINYL ESTRADIOL]	Negative
NC(=O)OCC(COC(N)=O)c1ccccc1 [FELBAMATE]	Negative
S=C=Nc1cccc2ccccc12 [1-NAPHTHYLISOTHIOCYANATE]	Negative
C=C1C[C@@H]1C[C@H](N)C(=O)O	Negative
CN(C)CCN(Cc1ccccc1)c1ccccn1 [TRIPELENNAMINE]	Positive
CCN[C@@H]1C[C@H](N)[C@@H](O[C@H]2OC(CN)=CC[C@H]2N)[C@H](O)[C@H]1O[C@H]1OC[C@](C)(O)[C@H](NC)[C@H]1O [NETILMICIN]	Positive
NC[C@H]1Cc2ccc(F)cc2[C@@H](c2ccccc2)O1	Positive
CN(C)CCN(Cc1cccs1)c1ccccn1	Negative

SMILES	Phospholipidosis
COc1cc([C@@H]2c3cc4c(cc3[C@@H](O[C@@H]3O[C@@H]5CO[C@@H](C)O[C@H]5[C@H](O)[C@H]3O)[C@H]3COC(=O)[C@H]23)OCO4)cc(OC)c1O [ETOPOSIDE]	Negative
NC(=O)NO [HYDROXYUREA]	Negative
O=C(O)Cc1ccccc1Nc1c(Cl)cccc1Cl [DICLOFENAC]	Negative
FC(F)(F)c1ccc(-c2ccc(OCCN3CCCC3)cc2)cc1 [BOXIDINE]	Positive
CN(C)CCCC1(c2ccc(F)cc2)OCc2cc(C#N)ccc21 (configuration not stated) [CITALOPRAM]	Positive
CC(CN1c2ccccc2Sc2ccccc21)N(C)C (configuration not stated) [PROMETHAZINE]	Positive
CC(=N)S [THIOACETAMIDE]	Negative
CCCNCCc1ccc(NS(=O)(=O)c2ccc(OC(F)(F)F)cc2)cc1	Positive
CCN(CC)CCNC(=O)c1ccc(N)cc1 [PROCAINAMIDE]	Negative
CC(C)(N)Cc1ccccc1 [PHENTERMINE]	Positive
CN(C)[C@@H]1C(O)=C(C(N)=O)C(=O)[C@@]2(O)C(O)=C3C(=O)c4c(O)ccc(Cl)c4[C@@H](O)[C@H]3C[C@@H]12 [DEMECLOCYCLINE]	Negative
CN(C)CCC=C1c2ccccc2CCc2ccccc21 [AMITRIPTYLINE]	Positive
CC[C@]1(O)C[C@@H]2CN(CCc3c([nH]c4ccccc34)[C@@](C(=O)OC)(c3cc4c(cc3OC)N(C)[C@H]3[C@@](O)(C(=O)OC)[C@H](OC(C)=O)[C@]5(CC)C=CCN6CC[C@]43[C@@H]65)C2)C1 [VINBLASTINE]	Negative
CC[C@H]1OC(=O)[C@H](C)[C@@H](O[C@H]2C[C@@](C)(OC)[C@@H](O)[C@H](C)O2)[C@H](C)[C@@H](O[C@@H]2O[C@H](C)C[C@H](N(C)C)[C@H]2O)[C@](C)(OC)C[C@@H](C)C(=O)[C@H](C)[C@@H](O)[C@]1(C)O [CLARITHROMYCIN]	Negative
CN/C(=N/CCSCc1nc[nH]c1C)NC#N [CIMETIDINE]	Negative
CC(=O)N(O)CCCCCNC(=O)CCC(=O)N(O)CCCCCNC(=O)CCC(=O)N(O)CCCCCN [DEFEROXAMINE]	Negative
CNCCC(Oc1ccc(C(F)(F)F)cc1)c1ccccc1 (configuration not stated) [FLUOXETINE]	Positive
CC[C@H]1OC(=O)[C@H](C)[C@@H](O[C@H]2C[C@@](C)(OC)[C@@H](O)[C@H](C)O2)[C@H](C)[C@@H](O[C@@H]2O[C@H](C)C[C@H](N(C)C)[C@H]2O)[C@](C)(O)C[C@@H](C)C(=O)[C@H](C)[C@@H](O)[C@]1(C)O [ERYTHROMYCIN]	Positive
CN(C)CCCN(C)[C@H]1CC[C@H]2[C@@H]3CC=C4C[C@@H](O)CC[C@]4(C)[C@H]3CC[C@]12C [AZACOSTEROL]	Positive

SMILES	Phospholipidosis
CN(C)CCCN1c2ccccc2Sc2ccc(Cl)cc21 [CHLORPROMAZINE]	Positive
CCOC(=O)C(C)(C)Oc1ccc(Cl)cc1 [CLOFIBRATE]	Negative
CC(CCc1ccccc1)NCC(O)c1ccc(O)c(C(N)=O)c1 (configuration not stated) [LABETALOL]	Positive
CN(C)C/C=C(/c1ccc(Br)cc1)c1cccnc1 [ZIMELDINE]	Positive
Cc1cccc(CN2CCN(C(c3ccccc3)c3ccc(Cl)cc3)CC2)c1 (configuration not stated) [MECLIZINE]	Positive
NCCc1cc(O)c(O)c(O)c1	Positive
CC(C)(Oc1ccc(C2CC2(Cl)Cl)cc1)C(=O)O (configuration not stated) [CIPROFIBRATE]	Negative
CN(Cc1cnc2nc(N)nc(N)c2n1)c1ccc(C(=O)N[C@@H](CCC(=O)O)C(=O)O)cc1 [METHOTREXATE]	Negative
CNS(=O)(=O)Cc1ccc2[nH]cc(CCN(C)C)c2c1	Negative
CC1=CC(=O)c2ccccc2C1=O [MENADIONE]	Negative
C=C[C@H]1C[N@@]2CC[C@H]1C[C@@H]2[C@@H](O)c1ccnc2ccc(OC)cc12 [QUINIDINE]	Positive
CC12CC3CC(C)(C1)CC(N)(C3)C2 [MEMANTINE]	Positive
CN[C@@H]1[C@@H](O)[C@@H](O[C@@H]2[C@@H](O)[C@H](O[C@H]3O[C@H]([C@@H](C)NC)CC[C@H]3N)[C@@H](N)C[C@H]2N)OC[C@]1(C)O [GENTAMICIN C1]	Positive
N#Cc1ccc(NC(=O)N=C(N)N)cc1Cl [CLOGUANAMIL]	Positive
Clc1ccccc1CNC[C@H]1CC[C@H](CNCc2ccccc2Cl)CC1	Positive
CC(Cc1ccccc1)NCCC(c1ccccc1)c1ccccc1 (configuration not stated) [PRENYLAMINE]	Positive
CCCCc1oc2ccccc2c1C(=O)c1cc(I)c(OCCN(CC)CC)c(I)c1 [AMIODARONE]	Positive
CNCCCC12CCC(c3ccccc31)c1ccccc12 [MAPROTILINE]	Positive
CNCCCN1c2ccccc2CCc2ccccc21 [DESIPRAMINE]	Positive
